Several values for one entry are separate records, joined by “and”; a condition that tells them apart may be missing. Equal values may be shown once. Toxic doses and inconclusive results are not listed.

The values that follow come from PubChem BioAssay AID330 (DTP/NCI, 2004).

In the assay the test system is P388 leukemia ip, CD2F1 mice, survival T/C. Description: NCI In Vivo Anticancer Drug Screen. Data for tumor model P388 Leukemia (intraperitoneal) in CD2F1 (CDF1) mice. As to conditions: endpoint: median survival time, higher = longer survival. In short, it runs like this: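 Mice carrying the transplanted tumor received test compound or vehicle. Survival was recorded in each group, and the value is the treated-group measurement divided by that of the vehicle-treated control group.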

Setting [1] is: dose: 25.0 mg/kg/injection, schedule: Q04DX002 (ip), vehicle: saline with Tween-80.
The mark [2] stands for this setting: dose: 50.0 mg/kg/injection, schedule: Q01DX005 (ip), vehicle: Klucel (hydroxypropylcellulose) (HPC).
Setting [3] is: dose: 100.0 mg/kg/injection, schedule: Q01DX005 (ip), vehicle: Klucel (hydroxypropylcellulose) (HPC).
The mark [4] stands for this setting: dose: 200.0 mg/kg/injection, schedule: Q01DX005 (ip), vehicle: Klucel (hydroxypropylcellulose) (HPC).
The mark [5] stands for this setting: dose: 60.0 mg/kg/injection, schedule: Q01DX005 (ip), vehicle: saline with Tween-80.
Where [6] appears, read: dose: 120.0 mg/kg/injection, schedule: Q01DX005 (ip), vehicle: saline with Tween-80.
Where [7] appears, read: dose: 240.0 mg/kg/injection, schedule: Q01DX005 (ip), vehicle: saline with Tween-80.
[8] abbreviates: dose: 50.0 mg/kg/injection, schedule: Q01DX009 (ip), vehicle: saline with Tween-80.
Setting [9] is: dose: 100.0 mg/kg/injection, schedule: Q01DX009 (ip), vehicle: saline with Tween-80.
The mark [10] stands for this setting: dose: 50.0 mg/kg/injection, schedule: Q01DX005 (ip), vehicle: saline with Tween-80.
Setting [11] is: dose: 100.0 mg/kg/injection, schedule: Q01DX005 (ip), vehicle: saline with Tween-80.
Setting [12] is: dose: 200.0 mg/kg/injection, schedule: Q01DX005 (ip), vehicle: saline with Tween-80.
[13] abbreviates: dose: 60.0 mg/kg/injection, schedule: Q01DX005 (ip), vehicle: Klucel (hydroxypropylcellulose) (HPC).
[14] abbreviates: dose: 120.0 mg/kg/injection, schedule: Q01DX005 (ip), vehicle: Klucel (hydroxypropylcellulose) (HPC).
Where [15] appears, read: dose: 240.0 mg/kg/injection, schedule: Q01DX005 (ip), vehicle: Klucel (hydroxypropylcellulose) (HPC).
[16] abbreviates: dose: 25.0 mg/kg/injection, schedule: Q01DX005 (ip), vehicle: Klucel (hydroxypropylcellulose) (HPC).

As to `CCCCCCCC/C=C\C(O)=C1\C(=O)NC(CCCNC(=O)OCc2ccccc2)C1=O` (stereo not given), the T/C is 100 % of control under setting [1]; 100 % of control (dose: 50.0 mg/kg/injection, schedule: Q04DX002 (ip), vehicle: saline with Tween-80); 86 % of control (dose: 100.0 mg/kg/injection, schedule: Q04DX002 (ip), vehicle: saline with Tween-80); 91 % of control (dose: 200.0 mg/kg/injection, schedule: Q04DX002 (ip), vehicle: saline with Tween-80); 103 % of control (dose: 400.0 mg/kg/injection, schedule: Q04DX002 (ip), vehicle: saline with Tween-80).

Consider `N#CCc1csc2ccccc12`, for which the T/C is, setting by setting: under setting [2], 117 % of control; under setting [3], 115 % of control; under setting [4], 112 % of control.

For the compound `CC1=NNC(=O)C1(Br)Br`, the T/C by setting is: (dose: 3.13 mg/kg/injection, schedule: Q01DX009 (ip), vehicle: Klucel (hydroxypropylcellulose) (HPC)) 90 % of control; (dose: 6.25 mg/kg/injection, schedule: Q01DX009 (ip), vehicle: Klucel (hydroxypropylcellulose) (HPC)) 100 % of control; (dose: 12.5 mg/kg/injection, schedule: Q01DX009 (ip), vehicle: Klucel (hydroxypropylcellulose) (HPC)) 100 % of control.

Take `NS(=O)(=O)c1cc2c(cc1Cl)NC(Cc1ccccc1)NS2(=O)=O` (stereo not given): the T/C reads like this: under setting [5], 100 % of control; under setting [6], 93 % of control; under setting [7], 93 % of control.

`CNC(=O)OCc1c(COC(=O)NC)c(-c2ccc(SC)cc2)n(C)c1C`: the T/C (dose: 3.13 mg/kg/injection, schedule: Q01DX009 (ip), vehicle: distilled water + Tween-80) was 187 % of control; the T/C (dose: 12.5 mg/kg/injection, schedule: Q01DX009 (ip), vehicle: distilled water + Tween-80) is 152 % of control; the T/C (dose: 50.0 mg/kg/injection, schedule: Q01DX009 (ip), vehicle: distilled water + Tween-80) is 150 % of control.

As to `CC(C)C(Br)C(Br)c1ccccc1` (stereo not given), the T/C is, setting by setting: under setting [8], 100 % of control; under setting [9], 104 % of control; (dose: 200.0 mg/kg/injection, schedule: Q01DX009 (ip), vehicle: saline with Tween-80) 104 % of control.

With `N#CCS(=O)CC(N)C(=O)O` (stereo not given), the T/C is 102 % of control under setting [10], 101 % of control under setting [11] and 100 % of control under setting [12].

In the case of `Cc1ccc(/C=C/c2ccc3ccccc3c2)cc1`, the T/C is 108 % of control (dose: 50.0 mg/kg/injection, schedule: Q01DX009 (ip), vehicle: other); 98 % of control (dose: 100.0 mg/kg/injection, schedule: Q01DX009 (ip), vehicle: other); 120 % of control (dose: 200.0 mg/kg/injection, schedule: Q01DX009 (ip), vehicle: other).

Turning to `COC(=O)c1cc(-c2ccc(OC)cc2)[nH]c(=O)c1C#N`, the T/C runs as follows: under setting [5], 100 % of control; under setting [6], 91 % of control.

`O=C(Nc1ccc(Cl)c(Cl)c1)/C(Cl)=C1/Sc2ccccc2NC1=O`: the T/C was 105 % of control under setting [5], 105 % of control under setting [6] and 105 % of control under setting [7].

As to `CCOC(=O)c1ccc(NC(=O)Nc2ccc(OC)cc2Cl)cc1`, the T/C was 91 % of control under setting [13], 93 % of control under setting [14] and 96 % of control under setting [15].

Turning to `NC(Cc1ccc2c(c1)OCO2)c1ccc2c(c1)OCO2` (stereo not given), the T/C under setting [2] is 101 % of control, the T/C under setting [3] was 99 % of control and the T/C under setting [4] is 101 % of control.

For the compound `CN=C(NC#N)NCCSCc1nc[nH]c1C`, the T/C by setting is: under setting [16], 102 % of control; under setting [2], 93 % of control; under setting [3], 93 % of control; under setting [4], 102 % of control; (dose: 400.0 mg/kg/injection, schedule: Q01DX005 (ip), vehicle: Klucel (hydroxypropylcellulose) (HPC)) 93 % of control.

As to `CCCCCCCCCCCCCCCCCC[N+](C)(C)C`, under “dose: 3.12 mg/kg/injection, schedule: Q01DX009 (ip), vehicle: saline”, the T/C is 118 % of control.

Turning to `CS(=O)(=O)/C=C/COC(=O)/C=C/c1ccccc1`, the T/C under setting [16] was 102 % of control, the T/C under setting [2] is 102 % of control, the T/C under setting [3] was 100 % of control and the T/C under setting [4] is 102 % of control.

Consider `CN(C)CCOC(=O)Nc1cc(Cl)cc(Cl)c1`, for which the T/C was 103 % of control under setting [5] and 103 % of control under setting [6].

As to `CCN(CC)C/C=C(/C)CCC=C(C)C`, the T/C is 103 % of control (dose: 5.0 mg/kg/injection, schedule: Q04DX002 (ip), vehicle: saline with Tween-80); 99 % of control (dose: 10.0 mg/kg/injection, schedule: Q04DX002 (ip), vehicle: saline with Tween-80); 95 % of control (dose: 20.0 mg/kg/injection, schedule: Q04DX002 (ip), vehicle: saline with Tween-80).

For `CCN(CC)C(=O)c1ccc[n+](CCC(N)=O)c1`, the T/C by setting is: (dose: 100.0 mg/kg/injection, schedule: Q04DX003 (ip), vehicle: saline) 90 % of control; (dose: 200.0 mg/kg/injection, schedule: Q04DX003 (ip), vehicle: saline) 100 % of control; (dose: 400.0 mg/kg/injection, schedule: Q04DX003 (ip), vehicle: saline) 100 % of control.

In the case of `COC(=O)C12CC3(C)OC1(C)OC(=O)C2(Cc1ccccc1)N3C(C)=O` (stereo not given), the T/C under setting [5] is 104 % of control, the T/C under setting [6] was 104 % of control and the T/C under setting [7] was 97 % of control.

For `COC(=O)C1(N2CCOCC2)CCC([C@@H](c2ccccc2)C(C)[N+](=O)[O-])C1` (stereo not given in full), the T/C under setting [13] is 100 % of control, the T/C under setting [14] was 98 % of control and the T/C under setting [15] was 99 % of control.

On to `COc1ccc2c(C[N+](C)(C)CCC#N)cc(=O)oc2c1`, for which the T/C by setting is: (dose: 50.0 mg/kg/injection, schedule: Q04DX002 (ip), vehicle: saline) 100 % of control; (dose: 100.0 mg/kg/injection, schedule: Q04DX002 (ip), vehicle: saline) 100 % of control; (dose: 200.0 mg/kg/injection, schedule: Q04DX002 (ip), vehicle: saline) 104 % of control.

On to `COC(=O)c1ccc(SCCC(=O)CCl)cc1`, for which the T/C is 115 % of control under setting [8] and 116 % of control under setting [9].

With `C=C(C)C(=O)NCC(=O)Nc1ccc(CC(NC(C)=O)C(=O)OC)cc1` (stereo not given), the T/C was 102 % of control under setting [10], 100 % of control under setting [11] and 89 % of control under setting [12].

As to `CCOC(=O)C1=C(C)O/C(=C/c2ccc(OC)cc2)C1=O`, the T/C runs as follows: (dose: 50.0 mg/kg/injection, schedule: Q01DX009 (ip), vehicle: Klucel (hydroxypropylcellulose) (HPC)) 98 % of control; (dose: 100.0 mg/kg/injection, schedule: Q01DX009 (ip), vehicle: Klucel (hydroxypropylcellulose) (HPC)) 93 % of control; (dose: 200.0 mg/kg/injection, schedule: Q01DX009 (ip), vehicle: Klucel (hydroxypropylcellulose) (HPC)) 100 % of control.

On to `[O-][n+]1cccc2c3ccccc3ncc21`, for which the T/C was 94 % of control (dose: 6.25 mg/kg/injection, schedule: Q04DX002 (ip), vehicle: saline with Tween-80); 108 % of control (dose: 12.5 mg/kg/injection, schedule: Q04DX002 (ip), vehicle: saline with Tween-80); 100 % of control under setting [1].

Turning to `CCC[CH2][Sn]([CH2]CCN(C)C)([CH2]CCN(C)C)[CH2]CCN(C)C`, the T/C is 100 % of control under setting [8] and 107 % of control under setting [9].

Regarding `C#CCNCCCn1c(=O)nc2n(-c3ccccc3)c3ccccc3nc-2c1=O`, the T/C is, setting by setting: (dose: 25.0 mg/kg/injection, schedule: Q04DX003 (ip), vehicle: Klucel (hydroxypropylcellulose) (HPC)) 110 % of control; (dose: 50.0 mg/kg/injection, schedule: Q04DX003 (ip), vehicle: Klucel (hydroxypropylcellulose) (HPC)) 106 % of control; (dose: 100.0 mg/kg/injection, schedule: Q04DX003 (ip), vehicle: Klucel (hydroxypropylcellulose) (HPC)) 100 % of control and 107 % of control.
